From the supplement of paper PMC13207355
Where a name gives a salt, the structure may show the parent alone.

What was measured:
Details in all cases: exposure time: 72 h
E31 [1] = patient-derived glioblastoma stem cells of proneural subtype; assay: phenotypic distance (Euclidean, principal components) from DMSO controls (arbitrary units); higher = stronger morphological change
E28 [2] = patient-derived glioblastoma stem cells of classical subtype; assay: as above
FT3469 [3] = normal neural stem cell line; assay: as above
E57 [4] = patient-derived glioblastoma stem cells of mesenchymal subtype; assay: as above
E21 [5] = patient-derived glioblastoma stem cells of mesenchymal subtype; assay: as above
E13 [6] = patient-derived glioblastoma stem cells of classical subtype; assay: as above
E34 [7] = patient-derived glioblastoma stem cells of proneural subtype; assay: as above
E31 [8] = assay: surviving fraction (nuclei count normalised to DMSO); higher = more cells surviving (less toxic)
E28 [9] = assay: as above
FT3469 [10] = assay: as above
E57 [11] = assay: as above
E21 [12] = assay: as above
E13 [13] = assay: as above
E34 [14] = assay: as above
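Throughout, for phenotypic distance (Euclidean, principal components) from DMSO controls: cell Painting imaging in 384-well plates, CellProfiler features reduced to at least 20 principal components, Euclidean distance versus same-plate DMSO vehicle wells (0.1% v/v), median over six images per well.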
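Throughout, for surviving fraction (nuclei count normalised to DMSO): nuclei counted by high-content imaging of Hoechst-stained cells in laminin-coated 384-well plates, relative to 0.1% DMSO vehicle wells, with staurosporine as cell-death control.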

Cc1ncc(CO)c(CO)c1O [Pyridoxine hydrochloride]
Details | phenotypic distance | surviving fraction
E13 [6], 4.1 nM | 1.83 | –
E13 [6], 12.3 nM | 0.627 | –
E13 [6], 37 nM | 0.476 | –
E13 [6], 111.1 nM | 0.757 | –
E13 [6], 333.3 nM | 0.677 | –
E13 [6], 1000 nM | 0.715 | –
E13 [6], 3000 nM | 1.55 | –
E13 [13], 4.1 nM | – | 0.907
E13 [13], 12.3 nM | – | 0.973
E13 [13], 37 nM | – | 0.968
E13 [13], 111.1 nM | – | 1.04
E13 [13], 333.3 nM | – | 1.02
E13 [13], 1000 nM | – | 0.905
E13 [13], 3000 nM | – | 1.08
E21 [5], 4.1 nM | 0.627 | –
E21 [5], 12.3 nM | 0.496 | –
E21 [5], 37 nM | 0.428 | –
E21 [5], 111.1 nM | 0.899 | –
E21 [5], 333.3 nM | 0.724 | –
E21 [5], 1000 nM | 0.617 | –
E21 [5], 3000 nM | 0.536 | –
E21 [12], 4.1 nM | – | 0.9
E21 [12], 12.3 nM | – | 1.04
E21 [12], 37 nM | – | 1.02
E21 [12], 111.1 nM | – | 1.03
E21 [12], 333.3 nM | – | 0.92
E21 [12], 1000 nM | – | 1.06
E21 [12], 3000 nM | – | 1.03
E28 [2], 4.1 nM | 0.428 | –
E28 [2], 12.3 nM | 0.769 | –
E28 [2], 37 nM | 0.765 | –
E28 [2], 111.1 nM | 0.622 | –
E28 [2], 333.3 nM | 0.82 | –
E28 [2], 1000 nM | 1.01 | –
E28 [2], 3000 nM | 0.741 | –
E28 [9], 4.1 nM | – | 0.967
E28 [9], 12.3 nM | – | 1.04
E28 [9], 37 nM | – | 0.991
E28 [9], 111.1 nM | – | 0.922
E28 [9], 333.3 nM | – | 0.975
E28 [9], 1000 nM | – | 0.968
E28 [9], 3000 nM | – | 1.09
E31 [1], 4.1 nM | 1.57 | –
E31 [1], 12.3 nM | 0.82 | –
E31 [1], 37 nM | 0.958 | –
E31 [1], 111.1 nM | 1.06 | –
E31 [1], 333.3 nM | 0.654 | –
E31 [1], 1000 nM | 0.523 | –
E31 [1], 3000 nM | 0.738 | –
E31 [8], 4.1 nM | – | 0.944
E31 [8], 12.3 nM | – | 1.04
E31 [8], 37 nM | – | 1.03
E31 [8], 111.1 nM | – | 1.1
E31 [8], 333.3 nM | – | 1.03
E31 [8], 1000 nM | – | 1.01
E31 [8], 3000 nM | – | 0.903
E34 [7], 4.1 nM | 1.15 | –
E34 [7], 12.3 nM | 0.917 | –
E34 [7], 37 nM | 0.991 | –
E34 [7], 111.1 nM | 1.16 | –
E34 [7], 333.3 nM | 0.742 | –
E34 [7], 1000 nM | 0.612 | –
E34 [7], 3000 nM | 0.936 | –
E34 [14], 4.1 nM | – | 0.949
E34 [14], 12.3 nM | – | 0.918
E34 [14], 37 nM | – | 1.19
E34 [14], 111.1 nM | – | 1.07
E34 [14], 333.3 nM | – | 0.943
E34 [14], 1000 nM | – | 0.916
E34 [14], 3000 nM | – | 1.06
E57 [4], 4.1 nM | 1.25 | –
E57 [4], 12.3 nM | 1.12 | –
E57 [4], 37 nM | 0.554 | –
E57 [4], 111.1 nM | 0.42 | –
E57 [4], 333.3 nM | 0.699 | –
E57 [4], 1000 nM | 0.559 | –
E57 [4], 3000 nM | 0.776 | –
E57 [11], 4.1 nM | – | 1.03
E57 [11], 12.3 nM | – | 0.99
E57 [11], 37 nM | – | 1.01
E57 [11], 111.1 nM | – | 0.965
E57 [11], 333.3 nM | – | 1.07
E57 [11], 1000 nM | – | 0.984
E57 [11], 3000 nM | – | 0.981
FT3469 [3], 4.1 nM | 0.887 | –
FT3469 [3], 12.3 nM | 0.632 | –
FT3469 [3], 37 nM | 0.988 | –
FT3469 [3], 111.1 nM | 0.539 | –
FT3469 [3], 333.3 nM | 4.03 | –
FT3469 [3], 1000 nM | 0.686 | –
FT3469 [3], 3000 nM | 0.525 | –
FT3469 [10], 4.1 nM | – | 0.987
FT3469 [10], 12.3 nM | – | 0.951
FT3469 [10], 37 nM | – | 0.972
FT3469 [10], 111.1 nM | – | 0.985
FT3469 [10], 333.3 nM | – | 1.05
FT3469 [10], 1000 nM | – | 1.09
FT3469 [10], 3000 nM | – | 0.987

Cc1cc(/C=C/c2ccc3cc(N(C)C)ccc3[n+]2C)c(C)n1-c1ccccc1 [Pyrvinium pamoate]
Details | phenotypic distance | surviving fraction
E13 [6], 4.1 nM | 4.29 | –
E13 [6], 12.3 nM | 1.32 | –
E13 [6], 37 nM | 2.18 | –
E13 [6], 111.1 nM | 4.63 | –
E13 [6], 333.3 nM | 4.15 | –
E13 [6], 1000 nM | 4.49 | –
E13 [6], 3000 nM | 6.77 | –
E13 [13], 4.1 nM | – | 0.769
E13 [13], 12.3 nM | – | 0.742
E13 [13], 37 nM | – | 0.57
E13 [13], 111.1 nM | – | 0.408
E13 [13], 333.3 nM | – | 0.479
E13 [13], 1000 nM | – | 0.264
E13 [13], 3000 nM | – | 0.0823
E21 [5], 4.1 nM | 0.978 | –
E21 [5], 12.3 nM | 1.16 | –
E21 [5], 37 nM | 2.86 | –
E21 [5], 111.1 nM | 4.87 | –
E21 [5], 333.3 nM | 4.65 | –
E21 [5], 1000 nM | 6.33 | –
E21 [5], 3000 nM | 23.7 | –
E21 [12], 4.1 nM | – | 0.856
E21 [12], 12.3 nM | – | 0.815
E21 [12], 37 nM | – | 0.577
E21 [12], 111.1 nM | – | 0.467
E21 [12], 333.3 nM | – | 0.425
E21 [12], 1000 nM | – | 0.149
E21 [12], 3000 nM | – | 0.00213
E28 [2], 4.1 nM | 0.873 | –
E28 [2], 12.3 nM | 1.67 | –
E28 [2], 37 nM | 2.93 | –
E28 [2], 111.1 nM | 4.57 | –
E28 [2], 333.3 nM | 4.5 | –
E28 [2], 1000 nM | 4.93 | –
E28 [2], 3000 nM | 9.86 | –
E28 [9], 4.1 nM | – | 0.853
E28 [9], 12.3 nM | – | 0.704
E28 [9], 37 nM | – | 0.547
E28 [9], 111.1 nM | – | 0.278
E28 [9], 333.3 nM | – | 0.195
E28 [9], 1000 nM | – | 0.106
E28 [9], 3000 nM | – | 0.0134
E31 [1], 4.1 nM | 1.33 | –
E31 [1], 12.3 nM | 1.04 | –
E31 [1], 37 nM | 2.33 | –
E31 [1], 111.1 nM | 5.34 | –
E31 [1], 333.3 nM | 7.12 | –
E31 [1], 1000 nM | 9.54 | –
E31 [1], 3000 nM | 18.8 | –
E31 [8], 4.1 nM | – | 1.01
E31 [8], 12.3 nM | – | 0.828
E31 [8], 37 nM | – | 0.484
E31 [8], 111.1 nM | – | 0.21
E31 [8], 333.3 nM | – | 0.146
E31 [8], 1000 nM | – | 0.0654
E31 [8], 3000 nM | – | 0
E34 [7], 4.1 nM | 0.966 | –
E34 [7], 12.3 nM | 0.752 | –
E34 [7], 37 nM | 1.33 | –
E34 [7], 111.1 nM | 3.14 | –
E34 [7], 333.3 nM | 3.58 | –
E34 [7], 1000 nM | 4.06 | –
E34 [7], 3000 nM | 6.46 | –
E34 [14], 4.1 nM | – | 0.92
E34 [14], 12.3 nM | – | 0.867
E34 [14], 37 nM | – | 0.645
E34 [14], 111.1 nM | – | 0.578
E34 [14], 333.3 nM | – | 0.667
E34 [14], 1000 nM | – | 0.443
E34 [14], 3000 nM | – | 0.5
E57 [4], 4.1 nM | 1.23 | –
E57 [4], 12.3 nM | 0.86 | –
E57 [4], 37 nM | 2.14 | –
E57 [4], 111.1 nM | 6.51 | –
E57 [4], 333.3 nM | 7.55 | –
E57 [4], 1000 nM | 8.44 | –
E57 [4], 3000 nM | 11.2 | –
E57 [11], 4.1 nM | – | 1.05
E57 [11], 12.3 nM | – | 1.01
E57 [11], 37 nM | – | 0.785
E57 [11], 111.1 nM | – | 0.364
E57 [11], 333.3 nM | – | 0.272
E57 [11], 1000 nM | – | 0.155
E57 [11], 3000 nM | – | 0.0231
FT3469 [3], 4.1 nM | 1.38 | –
FT3469 [3], 12.3 nM | 1.31 | –
FT3469 [3], 37 nM | 2.27 | –
FT3469 [3], 111.1 nM | 2.94 | –
FT3469 [3], 333.3 nM | 3.78 | –
FT3469 [3], 1000 nM | 7.4 | –
FT3469 [3], 3000 nM | 13 | –
FT3469 [10], 4.1 nM | – | 0.97
FT3469 [10], 12.3 nM | – | 0.882
FT3469 [10], 37 nM | – | 0.866
FT3469 [10], 111.1 nM | – | 0.677
FT3469 [10], 333.3 nM | – | 0.61
FT3469 [10], 1000 nM | – | 0.461
FT3469 [10], 3000 nM | – | 0.0541
